Assay results as given in ChEMBL document CHEMBL5523761 (J Med Chem, 2024).
One block for each compound: values may come before it.

Key:
[1] = molecular target: T1, D(1A) dopamine receptor (Homo sapiens, UniProt P21728)
Description: Binding affinity to D1 receptor (unknown origin) assessed as inhibition constant

[2] = molecular target: T2, D(2) dopamine receptor (Homo sapiens, UniProt P14416)
Description: Binding affinity to D2S receptor (unknown origin) assessed as inhibition constant

[3] = molecular target: T3, D(3) dopamine receptor (Homo sapiens, UniProt P35462)
Description: Agonist activity at D3 receptor (unknown origin)

[4] = molecular target: T4, D(4) dopamine receptor (Homo sapiens, UniProt P21917)
T4 sequence (P21917 whole entry): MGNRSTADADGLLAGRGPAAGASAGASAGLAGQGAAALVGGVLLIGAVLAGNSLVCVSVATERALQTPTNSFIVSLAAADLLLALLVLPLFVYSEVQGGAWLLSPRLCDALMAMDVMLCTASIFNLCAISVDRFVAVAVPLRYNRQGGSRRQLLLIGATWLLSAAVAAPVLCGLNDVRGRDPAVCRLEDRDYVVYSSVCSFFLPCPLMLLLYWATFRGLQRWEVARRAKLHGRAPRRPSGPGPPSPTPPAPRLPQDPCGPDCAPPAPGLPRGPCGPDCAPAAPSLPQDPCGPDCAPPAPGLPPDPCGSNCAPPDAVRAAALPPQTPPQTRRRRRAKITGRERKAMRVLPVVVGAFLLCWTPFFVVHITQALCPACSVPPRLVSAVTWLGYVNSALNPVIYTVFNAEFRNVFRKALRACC
Description: Agonist activity at D4 receptor (unknown origin)

[5] = molecular target: T5, Amine oxidase [flavin-containing] B (Homo sapiens, UniProt P27338)
T5 sequence (P27338 whole entry): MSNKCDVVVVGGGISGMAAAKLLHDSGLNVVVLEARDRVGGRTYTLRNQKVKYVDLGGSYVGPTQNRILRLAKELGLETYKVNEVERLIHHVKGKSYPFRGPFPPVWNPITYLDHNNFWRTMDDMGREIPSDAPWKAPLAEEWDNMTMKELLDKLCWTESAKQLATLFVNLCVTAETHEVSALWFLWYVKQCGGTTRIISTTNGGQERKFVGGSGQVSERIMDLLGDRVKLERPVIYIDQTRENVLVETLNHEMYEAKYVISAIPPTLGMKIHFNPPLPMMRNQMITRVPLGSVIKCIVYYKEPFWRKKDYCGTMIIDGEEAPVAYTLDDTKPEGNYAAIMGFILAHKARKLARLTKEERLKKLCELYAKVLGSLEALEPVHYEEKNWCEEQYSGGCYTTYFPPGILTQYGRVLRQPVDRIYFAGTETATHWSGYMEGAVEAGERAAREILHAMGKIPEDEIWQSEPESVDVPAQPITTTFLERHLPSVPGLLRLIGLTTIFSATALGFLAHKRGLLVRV
Description: Inhibition of MAO-B (unknown origin) measured by MAO-GloTM method

[6] = molecular target: T6, Amine oxidase [flavin-containing] A (Homo sapiens, UniProt P21397)
T6 sequence (P21397 whole entry): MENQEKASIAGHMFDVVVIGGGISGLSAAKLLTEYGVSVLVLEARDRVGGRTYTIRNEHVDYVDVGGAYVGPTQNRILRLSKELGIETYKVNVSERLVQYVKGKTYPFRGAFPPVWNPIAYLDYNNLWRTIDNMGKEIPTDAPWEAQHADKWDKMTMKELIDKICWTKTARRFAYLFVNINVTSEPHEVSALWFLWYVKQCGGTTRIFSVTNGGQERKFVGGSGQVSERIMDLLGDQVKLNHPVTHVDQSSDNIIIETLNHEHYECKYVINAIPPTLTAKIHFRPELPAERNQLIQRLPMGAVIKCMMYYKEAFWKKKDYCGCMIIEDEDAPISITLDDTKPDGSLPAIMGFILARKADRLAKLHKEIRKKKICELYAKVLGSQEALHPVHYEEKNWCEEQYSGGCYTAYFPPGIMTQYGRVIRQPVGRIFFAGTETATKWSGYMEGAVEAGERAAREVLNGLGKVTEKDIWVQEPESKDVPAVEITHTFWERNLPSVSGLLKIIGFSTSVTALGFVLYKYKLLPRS
Description: Inhibition of MAO-A (unknown origin) measured by MAO-GloTM method

[7] = molecular target: T3, D(3) dopamine receptor; remark: listed apart in the source
Description: Binding affinity to D3 receptor (unknown origin) assessed as inhibition constant

[8] = molecular target: T2, D(2) dopamine receptor; remark: listed apart in the source
Description: Binding affinity to D2 receptor (unknown origin) assessed as inhibition constant

[9] = molecular target: Cholinesterase (Homo sapiens, UniProt P06276)
Description: Inhibition of BChE (unknown origin) by Ellman's colorimetric method

[10] = molecular target: Acetylcholinesterase (Homo sapiens, UniProt P22303)
Description: Inhibition of AChE (unknown origin) by Ellman's colorimetric method

[11] = molecular target: Beta-secretase 1 (Homo sapiens, UniProt P56817)
Description: Inhibition of BACE1 (unknown origin) by FRET assay

[12] = molecular target: T2, D(2) dopamine receptor; remark: listed apart in the source
Description: Inhibition of D2 receptor (unknown origin)

[13] = molecular target: T1, D(1A) dopamine receptor; remark: listed apart in the source
Description: Inhibition of D1 receptor (unknown origin)

[14] = molecular target: T2, D(2) dopamine receptor; remark: listed apart in the source
[15] = molecular target: T2, D(2) dopamine receptor; remark: listed apart in the source
[16] = molecular target: T2, D(2) dopamine receptor; remark: listed apart in the source
Description: Antagonist activity at D2 receptor (unknown origin)

[17] = molecular target: T7, Alpha-1A adrenergic receptor (Homo sapiens, UniProt P35348)
T7 sequence (P35348 whole entry): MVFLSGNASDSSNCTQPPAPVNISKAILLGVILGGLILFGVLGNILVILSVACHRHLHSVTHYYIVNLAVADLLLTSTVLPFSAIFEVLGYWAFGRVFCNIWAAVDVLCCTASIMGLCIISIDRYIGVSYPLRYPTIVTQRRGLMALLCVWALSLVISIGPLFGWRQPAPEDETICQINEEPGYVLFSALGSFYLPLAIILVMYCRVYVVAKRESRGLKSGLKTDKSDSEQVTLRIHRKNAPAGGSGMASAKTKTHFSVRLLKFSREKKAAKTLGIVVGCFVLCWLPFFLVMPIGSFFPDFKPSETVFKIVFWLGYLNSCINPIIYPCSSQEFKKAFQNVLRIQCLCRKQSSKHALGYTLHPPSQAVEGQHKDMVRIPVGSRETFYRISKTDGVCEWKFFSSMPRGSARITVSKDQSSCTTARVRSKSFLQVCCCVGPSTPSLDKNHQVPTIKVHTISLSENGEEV
Description: Binding affinity to alpha1A adrenergic receptor (unknown origin) assessed as inhibition constant

[18] = molecular target: T2, D(2) dopamine receptor; remark: listed apart in the source
Description: Binding affinity to D2L receptor (unknown origin) assessed as inhibition constant

[19] = molecular target: T4, D(4) dopamine receptor; remark: listed apart in the source
Description: Binding affinity to D4 receptor (unknown origin) assessed as inhibition constant

[20] = molecular target: Vasopressin V1a receptor (Homo sapiens, UniProt P37288)
Description: Inhibition of Vasopressin V1A receptor (unknown origin)

[21] = molecular target: T3, D(3) dopamine receptor; remark: listed apart in the source
Description: Inhibition of D3 receptor (unknown origin)

[22] = molecular target: T4, D(4) dopamine receptor; remark: listed apart in the source
Description: Inhibition of D4 receptor (unknown origin)

[23] = molecular target: 5-hydroxytryptamine receptor 1B (Homo sapiens, UniProt P28222)
Description: Binding affinity to 5HT1B receptor (unknown origin) assessed as inhibition constant

[24] = molecular target: 5-hydroxytryptamine receptor 2A (Homo sapiens, UniProt P28223)
Description: Binding affinity to 5HT2A (unknown origin) assessed as inhibition constant

[25] = molecular target: 5-hydroxytryptamine receptor 1D (Homo sapiens, UniProt P28221)
Description: Binding affinity to 5HT1D receptor (unknown origin) assessed as inhibition constant

[26] = molecular target: T8, Alpha-2C adrenergic receptor (Homo sapiens, UniProt P18825)
T8 sequence (P18825 whole entry): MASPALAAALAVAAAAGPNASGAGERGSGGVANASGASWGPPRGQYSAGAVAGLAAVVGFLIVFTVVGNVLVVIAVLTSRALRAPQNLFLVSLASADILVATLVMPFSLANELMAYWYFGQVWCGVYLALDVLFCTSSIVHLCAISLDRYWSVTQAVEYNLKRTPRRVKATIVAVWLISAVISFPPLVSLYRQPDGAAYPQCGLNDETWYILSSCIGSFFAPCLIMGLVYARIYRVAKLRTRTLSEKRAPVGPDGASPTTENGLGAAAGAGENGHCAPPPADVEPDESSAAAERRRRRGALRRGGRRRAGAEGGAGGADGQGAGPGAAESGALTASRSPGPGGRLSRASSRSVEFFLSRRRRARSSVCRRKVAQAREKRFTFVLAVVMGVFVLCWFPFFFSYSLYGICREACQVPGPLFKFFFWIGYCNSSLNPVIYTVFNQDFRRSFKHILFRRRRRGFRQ
Description: Binding affinity to alpha2C adrenergic receptor (unknown origin) assessed as inhibition constant

[27] = molecular target: T9, 5-hydroxytryptamine receptor 2C (Homo sapiens, UniProt P28335)
T9 sequence (P28335 whole entry): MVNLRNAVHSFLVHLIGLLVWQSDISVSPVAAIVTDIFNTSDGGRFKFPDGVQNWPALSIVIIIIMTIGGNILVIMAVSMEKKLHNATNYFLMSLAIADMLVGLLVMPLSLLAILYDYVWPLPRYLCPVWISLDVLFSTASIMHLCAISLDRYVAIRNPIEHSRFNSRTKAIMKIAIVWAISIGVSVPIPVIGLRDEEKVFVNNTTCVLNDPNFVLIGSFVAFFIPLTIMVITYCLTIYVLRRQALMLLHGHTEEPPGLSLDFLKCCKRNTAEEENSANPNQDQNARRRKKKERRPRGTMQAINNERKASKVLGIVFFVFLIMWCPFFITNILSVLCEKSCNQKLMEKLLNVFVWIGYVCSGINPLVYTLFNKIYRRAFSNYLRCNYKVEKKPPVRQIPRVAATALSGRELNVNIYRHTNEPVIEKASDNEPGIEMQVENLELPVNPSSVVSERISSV
Description: Binding affinity to 5HT2C receptor (unknown origin) assessed as inhibition constant

[28] = molecular target: 5-hydroxytryptamine receptor 7 (Homo sapiens, UniProt P34969)
Sequence of 5-hydroxytryptamine receptor 7 (P34969 whole entry): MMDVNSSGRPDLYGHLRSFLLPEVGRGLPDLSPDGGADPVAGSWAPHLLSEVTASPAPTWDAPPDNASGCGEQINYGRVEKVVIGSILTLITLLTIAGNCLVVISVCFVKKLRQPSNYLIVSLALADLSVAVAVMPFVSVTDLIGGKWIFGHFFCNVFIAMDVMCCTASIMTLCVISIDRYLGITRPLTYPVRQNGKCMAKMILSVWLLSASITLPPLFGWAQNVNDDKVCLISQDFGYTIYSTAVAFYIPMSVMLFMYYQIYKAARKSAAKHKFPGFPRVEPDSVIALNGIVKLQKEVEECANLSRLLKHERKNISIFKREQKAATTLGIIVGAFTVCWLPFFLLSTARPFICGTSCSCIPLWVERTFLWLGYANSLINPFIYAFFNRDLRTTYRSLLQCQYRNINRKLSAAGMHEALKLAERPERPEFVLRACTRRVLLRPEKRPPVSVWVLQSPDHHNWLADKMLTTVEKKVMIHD
Description: Binding affinity to 5HT7 receptor (unknown origin) assessed as inhibition constant

T1 sequence (P21728 whole entry): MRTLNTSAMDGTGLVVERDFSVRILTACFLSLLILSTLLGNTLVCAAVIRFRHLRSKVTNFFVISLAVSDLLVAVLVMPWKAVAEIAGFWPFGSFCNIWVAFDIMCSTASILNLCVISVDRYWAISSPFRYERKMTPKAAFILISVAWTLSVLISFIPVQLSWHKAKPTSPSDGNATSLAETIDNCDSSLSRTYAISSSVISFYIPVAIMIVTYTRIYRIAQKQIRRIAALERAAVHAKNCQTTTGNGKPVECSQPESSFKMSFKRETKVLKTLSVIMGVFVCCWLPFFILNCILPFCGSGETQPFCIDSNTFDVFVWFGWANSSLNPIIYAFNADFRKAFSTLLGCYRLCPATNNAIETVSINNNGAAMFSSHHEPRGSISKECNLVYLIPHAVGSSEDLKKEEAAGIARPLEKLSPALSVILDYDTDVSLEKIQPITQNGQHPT
T2 sequence (P14416 whole entry): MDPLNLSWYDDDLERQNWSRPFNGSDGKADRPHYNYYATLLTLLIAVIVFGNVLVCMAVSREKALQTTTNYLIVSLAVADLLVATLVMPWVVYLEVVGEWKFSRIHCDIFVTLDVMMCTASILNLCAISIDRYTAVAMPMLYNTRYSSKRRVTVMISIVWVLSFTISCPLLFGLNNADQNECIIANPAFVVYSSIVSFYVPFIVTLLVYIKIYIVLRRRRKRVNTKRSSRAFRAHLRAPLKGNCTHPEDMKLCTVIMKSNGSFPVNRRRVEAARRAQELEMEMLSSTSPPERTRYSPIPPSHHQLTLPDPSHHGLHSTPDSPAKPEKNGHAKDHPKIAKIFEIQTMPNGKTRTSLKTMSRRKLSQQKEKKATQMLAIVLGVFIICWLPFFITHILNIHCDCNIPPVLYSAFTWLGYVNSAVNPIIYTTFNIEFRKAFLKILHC
T3 sequence (P35462 whole entry): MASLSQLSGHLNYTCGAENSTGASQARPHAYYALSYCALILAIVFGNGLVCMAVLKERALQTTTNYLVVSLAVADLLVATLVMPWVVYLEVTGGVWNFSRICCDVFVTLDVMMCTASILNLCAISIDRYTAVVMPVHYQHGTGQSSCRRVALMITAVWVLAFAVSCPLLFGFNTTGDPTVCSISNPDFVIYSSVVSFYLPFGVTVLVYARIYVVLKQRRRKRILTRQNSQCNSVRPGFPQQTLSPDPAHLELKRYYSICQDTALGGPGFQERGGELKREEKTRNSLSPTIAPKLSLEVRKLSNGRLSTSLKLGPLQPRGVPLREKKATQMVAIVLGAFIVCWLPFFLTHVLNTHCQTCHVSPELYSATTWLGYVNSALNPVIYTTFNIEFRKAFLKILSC
Sequence of Vasopressin V1a receptor (P37288 whole entry): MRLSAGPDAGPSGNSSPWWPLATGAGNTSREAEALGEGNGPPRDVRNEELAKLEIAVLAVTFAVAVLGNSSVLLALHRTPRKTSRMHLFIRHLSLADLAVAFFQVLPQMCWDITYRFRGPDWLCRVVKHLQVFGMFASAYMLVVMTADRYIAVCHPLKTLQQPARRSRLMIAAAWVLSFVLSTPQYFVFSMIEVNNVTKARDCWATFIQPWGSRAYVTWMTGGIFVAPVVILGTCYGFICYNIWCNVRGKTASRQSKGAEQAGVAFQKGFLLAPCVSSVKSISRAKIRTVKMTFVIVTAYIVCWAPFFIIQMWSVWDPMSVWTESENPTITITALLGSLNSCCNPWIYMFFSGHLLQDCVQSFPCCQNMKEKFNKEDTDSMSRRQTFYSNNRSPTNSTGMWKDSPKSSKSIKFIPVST
Sequence of 5-hydroxytryptamine receptor 2A (P28223 whole entry): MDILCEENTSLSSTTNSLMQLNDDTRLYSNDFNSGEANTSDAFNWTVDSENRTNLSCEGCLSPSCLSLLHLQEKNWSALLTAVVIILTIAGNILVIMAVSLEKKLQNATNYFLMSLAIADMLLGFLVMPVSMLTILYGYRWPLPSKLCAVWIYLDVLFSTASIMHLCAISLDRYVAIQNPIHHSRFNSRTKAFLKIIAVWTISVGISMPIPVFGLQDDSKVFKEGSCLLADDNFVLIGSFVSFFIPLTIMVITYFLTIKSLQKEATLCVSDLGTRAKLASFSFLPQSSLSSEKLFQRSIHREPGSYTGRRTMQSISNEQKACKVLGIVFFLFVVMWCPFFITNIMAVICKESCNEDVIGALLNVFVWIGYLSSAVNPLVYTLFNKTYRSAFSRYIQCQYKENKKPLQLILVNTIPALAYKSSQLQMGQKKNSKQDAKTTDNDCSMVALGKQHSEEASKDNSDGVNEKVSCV
Sequence of Acetylcholinesterase (P22303 whole entry): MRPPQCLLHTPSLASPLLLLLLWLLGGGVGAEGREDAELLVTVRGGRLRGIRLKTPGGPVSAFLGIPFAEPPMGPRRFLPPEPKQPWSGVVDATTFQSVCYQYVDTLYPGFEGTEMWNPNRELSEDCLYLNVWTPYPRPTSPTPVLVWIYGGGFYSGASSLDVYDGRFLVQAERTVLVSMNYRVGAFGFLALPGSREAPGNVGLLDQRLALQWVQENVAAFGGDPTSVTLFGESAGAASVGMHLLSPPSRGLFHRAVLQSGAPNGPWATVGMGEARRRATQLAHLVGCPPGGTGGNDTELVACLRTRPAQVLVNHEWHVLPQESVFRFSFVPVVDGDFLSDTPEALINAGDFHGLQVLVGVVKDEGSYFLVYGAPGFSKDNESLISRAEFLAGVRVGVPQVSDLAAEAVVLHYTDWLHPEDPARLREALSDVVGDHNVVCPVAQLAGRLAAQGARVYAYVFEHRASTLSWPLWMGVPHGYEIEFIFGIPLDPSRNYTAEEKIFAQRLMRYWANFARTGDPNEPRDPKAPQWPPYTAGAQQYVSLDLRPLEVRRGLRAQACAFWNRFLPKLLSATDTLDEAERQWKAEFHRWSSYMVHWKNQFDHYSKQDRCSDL
Sequence of 5-hydroxytryptamine receptor 1B (P28222 whole entry): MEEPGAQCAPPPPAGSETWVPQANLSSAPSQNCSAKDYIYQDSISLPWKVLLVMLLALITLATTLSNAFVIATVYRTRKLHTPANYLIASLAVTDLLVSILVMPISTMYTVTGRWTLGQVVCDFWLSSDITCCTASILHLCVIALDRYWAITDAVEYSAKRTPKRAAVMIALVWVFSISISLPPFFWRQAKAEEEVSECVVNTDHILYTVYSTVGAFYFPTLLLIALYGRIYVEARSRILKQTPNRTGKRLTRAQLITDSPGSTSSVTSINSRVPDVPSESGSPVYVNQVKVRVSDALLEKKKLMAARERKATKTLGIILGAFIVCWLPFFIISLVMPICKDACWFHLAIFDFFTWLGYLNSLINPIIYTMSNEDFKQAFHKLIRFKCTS
Sequence of 5-hydroxytryptamine receptor 1D (P28221 whole entry): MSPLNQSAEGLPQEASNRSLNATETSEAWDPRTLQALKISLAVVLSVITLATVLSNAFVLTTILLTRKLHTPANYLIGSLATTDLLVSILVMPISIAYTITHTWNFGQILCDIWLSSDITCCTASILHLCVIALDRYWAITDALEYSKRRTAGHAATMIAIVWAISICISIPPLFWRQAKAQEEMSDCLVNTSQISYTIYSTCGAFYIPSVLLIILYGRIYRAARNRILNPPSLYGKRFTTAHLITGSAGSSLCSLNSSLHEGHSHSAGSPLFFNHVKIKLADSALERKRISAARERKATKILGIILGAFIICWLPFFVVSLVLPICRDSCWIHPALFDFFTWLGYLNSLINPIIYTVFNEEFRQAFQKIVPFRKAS
Sequence of Beta-secretase 1 (P56817 whole entry): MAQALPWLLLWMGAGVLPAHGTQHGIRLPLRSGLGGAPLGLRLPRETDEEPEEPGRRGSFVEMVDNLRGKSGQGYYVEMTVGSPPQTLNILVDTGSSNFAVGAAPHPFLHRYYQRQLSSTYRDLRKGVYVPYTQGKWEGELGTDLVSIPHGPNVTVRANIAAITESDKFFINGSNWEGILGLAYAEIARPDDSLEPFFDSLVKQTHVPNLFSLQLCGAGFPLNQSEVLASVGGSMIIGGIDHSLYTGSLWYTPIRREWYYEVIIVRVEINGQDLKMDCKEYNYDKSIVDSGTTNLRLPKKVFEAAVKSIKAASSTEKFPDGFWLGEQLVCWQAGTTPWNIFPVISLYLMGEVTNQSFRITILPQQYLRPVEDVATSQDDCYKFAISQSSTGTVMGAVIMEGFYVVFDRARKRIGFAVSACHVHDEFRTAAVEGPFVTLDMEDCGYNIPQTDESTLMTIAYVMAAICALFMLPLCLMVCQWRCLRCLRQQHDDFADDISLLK

Ki [2]: 514 nM
SMILES: COc1cc2c(cc1O)CN1CCc3cc(OC)c(O)cc3[C@@H]1C2

Ki [1]: 3800 nM | Ki [7]: 93 nM
SMILES: Oc1cc2c(cc1O)C1Cc3cccc(O)c3CN1CC2 (stereo unspecified)

IC50 [12]: 320 nM | IC50 [13]: 80 nM
SMILES: COc1cc2c(cc1OC)Oc1c(O)ccc3c1[C@@H](C2)N(C)CC3

Ki [1]: 8.75 nM | Ki [2]: 708 nM | Ki [7]: 606 nM
SMILES: COC1=CC2C[C@@H]3c4cc(O)c(OC)cc4CCN3CC2C=C1O (stereo partly specified)

IC50 [12]: 220 nM | IC50 [13]: 100 nM
SMILES: COc1cc2c(cc1O)C[C@@H]1c3c(ccc(O)c3O2)CCN1C

IC50 [12]: 2500 nM
SMILES: C=C1CCC[C@]2(C)Cc3occ(C)c3C[C@@H]12 [ATRACTYLON]

IC50 [14]: 38600 nM | IC50 [15]: 17100 nM
SMILES: COc1ccc2cc3[n+](cc2c1OC)CCc1cc2c(cc1-3)OCO2 [BERBERINE CHLORIDE]

IC50 [12]: 30 nM | IC50 [13]: 60 nM
SMILES: COc1cc2c(cc1O)Oc1c(O)ccc3c1[C@H](C2)N(C)CC3 [CELTISINE]

Ki [8]: 1.6 nM | Ki [23]: 111 nM | Ki [17]: 11 nM | Ki [24]: 0.83 nM | Ki [25]: 7.3 nM | Ki [26]: 2.7 nM | Ki [27]: 19 nM | Ki [1]: 554 nM | Ki [28]: 6.8 nM | Ki [7]: 7.5 nM
SMILES: Cc1nc2n(c(=O)c1CCN1CCC(c3noc4cc(F)ccc34)CC1)CCCC2O (stereo unspecified) [PALIPERIDONE]

Ki [17]: 888 nM
SMILES: CCCN1C[C@H](CSC)C[C@@H]2c3cccc4[nH]cc(c34)C[C@H]21 [PERGOLIDE]

Ki [8]: 11.6 nM | Ki [19]: 1450 nM | Ki [1]: 5.1 nM | Ki [7]: 23.4 nM
SMILES: COc1cc2c(cc1O)[C@@H]1Cc3ccc(O)c(OC)c3CN1CC2 [STEPHOLIDINE]

Ki [8]: 388 nM | Ki [1]: 124 nM
SMILES: COc1cc2c(cc1OC)[C@@H]1Cc3ccc(OC)c(OC)c3CN1CC2 [TETRAHYDROPALMATINE]

Further lines, the compound ahead of its results:

SMILES: CCCN1CCc2cc(OCCCF)cc3c2[C@H]1Cc1cccc(O)c1-3
Ki [1]: 0.54 nM

SMILES: CCN1CCc2cc(OCCF)cc3c2[C@H]1Cc1cccc(O)c1-3
Ki [1]: 0.83 nM

SMILES: Oc1c(O)c(Br)c(COCc2c(Br)c(O)c(O)c(Br)c2Br)c(Br)c1Br
EC50 [3]: 59000 nM | EC50 [4]: 59000 nM | IC50 [5]: 103000 nM | IC50 [6]: 89300 nM

SMILES: CCCN1CCc2cccc3c2[C@H]1Cc1cccc(OC(C)=O)c1-3
Ki [8]: 72.3 nM | Ki [1]: > 10000 nM

SMILES: CCCN1CCc2cccc3c2[C@H]1Cc1cccc(O)c1-3
Ki [1]: 699 nM

SMILES: CCCCC(=O)Oc1cccc2c1-c1cccc3c1[C@@H](C2)N(CCC)CC3
Ki [8]: 340 nM | Ki [1]: > 20000 nM

SMILES: C=C(C)[C@H](CC=C(C)C)Cc1c(O)cc(OC)c2c1O[C@H](c1ccc(O)cc1O)CC2=O
IC50 [9]: 5290 nM | IC50 [10]: 42100 nM | IC50 [11]: 24500 nM

SMILES: OCc1c(Br)c(O)c(O)c(Br)c1Br
EC50 [4]: 57200 nM | IC50 [5]: 151000 nM | IC50 [6]: 205000 nM

SMILES: COc1ccc(C[C@H]2c3cc(O)c(OC)cc3CCN2C)cc1O [(S)-RETICULINE]
IC50 [12]: 470 nM | IC50 [13]: 1800 nM

SMILES: COc1cc2c(cc1O)C[C@H]1c3c(cc(O)c(OC)c3-2)CCN1C [BOLDINE]
IC50 [16]: 520 nM

SMILES: CC(C)C[C@H]1C(=O)N2CCC[C@H]2[C@]2(O)O[C@](NC(=O)[C@@H]3C=C4c5cccc6[nH]c(Br)c(c56)C[C@H]4N(C)C3)(C(C)C)C(=O)N12 [BROMOCRIPTINE]
Ki [17]: 18 nM | Ki [1]: 3420 nM

SMILES: C=CCN1C[C@H](C(=O)N(CCCN(C)C)C(=O)NCC)C[C@@H]2c3cccc4[nH]cc(c34)C[C@H]21 [CABERGOLINE]
Ki [8]: 0.36 nM | Ki [18]: 0.36 nM | Ki [1]: 3800 nM

SMILES: OCCN1CCN(CCCN2c3ccccc3Sc3ccc(C(F)(F)F)cc32)CC1 [FLUPHENAZINE]
Ki [19]: 130 nM

SMILES: COc1cc2c(cc1OC)-c1c(OC)c(OC)cc3c1[C@H](C2)N(C)CC3 [GLAUCINE]
IC50 [16]: 3020 nM

SMILES: O=C(/C=C/c1ccc(O)cc1)c1ccc(O)cc1O [ISOLIQUIRITIGENIN]
IC50 [20]: 78600 nM | IC50 [21]: 62300 nM

SMILES: O=c1cc(-c2ccc(O)c(O)c2)oc2cc(O)cc(O)c12 [LUTEOLIN]
IC50 [22]: 39600 nM | IC50 [20]: 19500 nM | IC50 [5]: > 100000 nM | IC50 [6]: 8570 nM
